One experiment has as its system CFA-induced pain model. The experiment can be described thus: Antiallodynic activity on Complete Freund's Adjuvant (CFA)-induced inflammatory pain model (von Frey). Particulars: Rattus norvegicus, ip, 0.5 h, read-out: CFA model: effect (%) at the concentration administered. The experiment is classed as in vivo, Sprague-Dawley rats. On the procedure: Male, Sprague-Dawley rats (200-220 g, Nara Bio, Korea) were habituated for 1 week before surgery and allowed free access to food and water throughout the experimentation. Room temperature and humidity were maintained at 24±2° C. and 50±10%, respectively.
CFA-induced inflammatory pain was induced by the procedure of Nagakura et al. (2003) and Gregory P. et al. (2010) with minor modifications. CFA (sigma, USA) was injected in the left plantar with a 100 ul volume under gaseous anesthesia with isoflurane a 4:4 flow ratio of NO2 Sham controls were injected with 100 ul of saline and vehicle controls were identical to CFA infusion model, except for administration of vehicles.
(§1) Tactile sensitivity (Mechanical allodynia) was evaluated using von Frey monofilaments before and after treatment, and animals were used withdrawal threshold value was less than 4 g. One week after surgery, CFA-infused animals (n=4˜6), sham-operated animals (n=12), and vehicle-operated animals (n=17) were tested for tactile sensitivity with von Frey monofilaments 3 trials in each animal. All Animals were placed in a stainless steel mashed chamber and habituated for 30 min in the test box. The tactile sensitivity for ipsilateral hind paw was measured using the up-and-down method (Dixon, 1980) with seven von Frey monofilaments (0.4, 1, 2, 4, 6, 8, and 15 g) to 3 trials. Tactile sensitivity test was followed by Dixon's method (Dixon, 1980). The 50% paw withdrawal threshold for each paw was calculated using the following formula: [Xth] log=[vFr] log+ky where [vFr] is the force of the last von Frey used, k=0.2249 which is the average interval (in log units) between the von Frey monofilaments, and y is a value that depends upon the pattern of withdrawal responses (Dixon, 1980).
[…] The test was performed peak time of efficacy (0.5 hr) after compound administration.
The relative values compared to the sham (% control) were calculated and shown in Table 4, which show an antiallodynic effect of the compound of Examples on CFA-induced pain model in rats.

For experiment [1], the system named is Post operation-induced pain model. The experiment can be described thus: Antiallodynic activity on post operative-induced pain model (von Frey). The experiment is classed as in vivo, Sprague-Dawley rats. Particulars: 2 mg/kg, 0.5 h, rat, intraperitoneal. The method, then:
Male Sprague-Dawley rats′(Orient Bio, Korea), 300˜320 g, total of 201 rats were used (details in Table 7). Rats were habituated at least 3 clays before surgery and free access to food and water (room temperature and humidity were maintained at 24±2° C. and 50±10%, respectively). The process of performing the post-operation model's surgery was adapted from Brennan et al (1996). At first, rats with allodynia (threshold valueless than 8 g) were excluded in Pre-von Frey Test. During the post-operation surgery, rats were anesthetized under gaseous anesthesia with 2% isoflurane. Rats were laid face down on a plate fixed at 37° C. to prevent against hypothermia. The ipsilateral plantar aspect (left side) of the hind paw was prepared in a sterile manner with a 10% povidone-iodine solution. […]
For efficacy measure, the threshold value of group C was assigned 100% efficacy, and the percentage of the threshold values of group A compared to group C (for each different dose level) were calculated as the efficacies. Base on these efficacy values, ED50 was calculated using log fitting. […]
For pain threshold test, all animals were placed in a stainless steel meshed chamber and habituated for 30 min in the test box. The tactile sensitivity of the ipsilateral hind paw was measured using the up-and-down method (Dixon, 1980) with seven von Frey monofilaments (0.4, 1, 2, 4, 6, 8, and 15 g) using 3 trials. […]

For experiment [2], the system named is tail-flick withdrawal latency. The experiment can be described thus: Tail-flick test. It is filed as in vivo, ICR mice. Particulars: mouse, oral. On the procedure: To examine the pain relief effect of the sulfamate compounds, a tail-flick test was conducted in general pain animal model referring to Current Protocols in Neuroscience; Behavioral Neuroscience Unit 8.9.
ICR mice (male, 25-30 g; Orient Bio, Korea) were habituated before test in test room for 1 hour. Animals were fasted 2 hr before administration of compounds. Each of Compound was orally administered at the close of 150 mg/kg, 10 ul/g, bw (n=7˜10/group). All compounds were dissolved in a vehicle of 30% (v/v) PEG 400 or 20% (v/v) Tween 80. The control group was treated the vehicle without compounds.
After the administration of compounds, the mice tail were put on a tail-flick analgesia meter. To avoid tissue damage, maximal exposure time to pain stimuli was restricted to 15 s. The withdrawal latency was measured as the time to the point when each mouse response to the stimulus. The relative values compared to the control (% control) were calculated.
The relative values compared to the sham were calculated and shown in Table 12, which show effect of the compound of examples on tail-flick test in […].

A further experiment relates to SNL model. The experiment can be described thus: Antiallodynic activity on Chung model (SNL, spinal nerve ligation; von Frey). It is filed as in vivo, Sprague-Dawley rats. The settings on record: 0.5 h, rat, oral; for ED50: von Frey. On the procedure: Male. Sprague-Dawley rats (200-220 g, Orient Bio, Korea) were habituated for 1 week before the experiment and allowed free access to food and water throughout the experimentation. Room temperature and humidity were maintained at 24±2° C. and 50±10%, respectively. Neuropathic surgery (SNL, Spinal nerve ligation) model was clone as described in Kim and Chung (1992). Briefly, animal under gaseous anesthesia with isoflurane a 4:4 flow ratio of NO2. The left lumber spinal nerve L5 and L6 were isolated and tightly ligated with 4-0 silk thread. The wound was treated with a gentamicin antibiotics solution (4 mg/kg, 4 ul/g, bw), and the wound muscle was closed with cat cut chrom 4/0 thread and skin was closed dafilon 4/0 tread. Sham controls were prepared in the same manner as the spinal nerves were exposed, but no ligated L5 and L6 nerves. But, vehicle controls were identical to SNL model, except for administration of vehicles.
as §1, with “treatment” for “treatment,”, “SNL-operated” for “CFA-infused”, “(n=4˜10)” for “(n=12),”, “(n=4˜13)” for “(n=17)”
All animals were fasted 18 h before the administration of the compounds. The antiallodynic effect of the compounds were evaluated at the various dose (n=5˜6), orally administrated in a volume of 5 ul/g, bw in a vehicle of 30% (v/v) PEG 400 or 20% (v/v) Tween 80 or Saline. […]
The relative values compared to the sham group (% control) were calculated and shown in Table 5, which show an antiallodynic effect of the test compounds on SNL model in rats.

Experiment [3] relates to hot plate withdrawal latency. The experiment can be described thus: Hot-plate test. The experiment is classed as in vivo, ICR mice. Particulars: mouse, oral. The method, then: To examine the pain relief effect of the sulfamate derivative compounds, a hot-plate test was conducted in general pain animal model referring to Current Protocols in Neuroscience; Behavioral Neuroscience Unit 8.9.
ICR mice (male, 30-35 g: Orient Bio, Korea) were habituated before test in test room for 1 hour. Animals were fasted 2 hr before administration of compounds. […] All compounds were dissolved in a vehicle of 30% (v/v) PEG 400 or 20% (v/v) Tween 80. The control group was treated the vehicle without compounds.
[…] (Hu, X. et al, 2008), and then, measured as the withdrawal latency (cut-off time: 30 sec) time until the point when each mouse was taking off a paw from the plate, shaking, licking a paw or hind leg, or jumping from the plate.

`CC1(C)O[C@@H](COS([NH-])(=O)=O)[C@H](c2ccccc2Cl)O1.[Na+]` [Example 177, sodium ((((4S,5S)-5-(2-chlorophenyl)-2,2-dimethyl-1,3-dioxolan-4-yl)methoxy)sulfonyl)amide]: the response vs control in vivo at 15 mg/kg in the experiment with CFA-induced pain model was determined as 67.2%. Also, the “Post Operation: effect (%) at the concentration administered” value in experiment [1] is “^#2 (64.4%, 0.5 h)”.

In the case of `CC1(C)O[C@@H](COS(N)(=O)=O)[C@H](c2ccccc2I)O1` [Example 28, ((4S,5S)-5-(2-iodophenyl)-2,2-dimethyl-1,3-dioxolan-4-yl)methyl sulfamate], the tail-flick test: dose in experiment [2] is above 200 mg/kg. In the experiment with SNL model (90 mg/kg, read-out: SNL model: effect (%) at the concentration administered), the response vs control in vivo at 90 mg/kg turned out to be 72.6%. Moreover, the “Hot plate test: effect (%) at the concentration administered” value in experiment [3] (100 mg/kg) is “^#100 (126.4%)”. Moreover, in the experiment with CFA-induced pain model (40 mg/kg, rat, intraperitoneal), the response vs control in vivo at 40 mg/kg turned out to be 17.8%.

The compound `CC1(C)O[C@H](c2ccccc2F)[C@@H](COS(N)(=O)=O)O1` [Example 15, ((4R,5R)-5-(2-fluorophenyl)-2,2-dimethyl-1,3-dioxolan-4-yl)methyl sulfamate] gave a tail-flick test: dose in experiment [2] above 200 mg/kg. For the same compound, the ED50 in the experiment with SNL model amounted to 69.8 mg/kg; in experiment [3] (0.5 h), 113 mg/kg.

In the case of `CC1(C)O[C@@H](COS(N)(=O)=O)[C@H](c2ccccc2F)O1` [Example 16, ((4S,5S)-5-(2-fluorophenyl)-2,2-dimethyl-1,3-dioxolan-4-yl)methyl sulfamate], the tail-flick test: dose in experiment [2] was above 200 mg/kg. Further, the ED50 in the experiment on SNL model came to 24.6 mg/kg; in experiment [3] (1 h), 116 mg/kg.

The values above are taken from patent US9834535B2, “Sulfamate derivative compounds for use in treating or alleviating pain” (Bio-Pharm Solutions Co., Ltd., priority 2013, dated 2017).
